In patent US20160109459A1, “Compositions And Methods For Heparan Sulfate As A Biomarker For Transplant Rejection” (Duke University, priority 2012, published 2016):

Assays:
BALB/c DCs = assay: DC production of pro-inflammatory cytokines by ELISA; format: cell-based, mouse
Experimental: FIG. 3A is a graph showing WT, TLR4^−/−, or MyD88^−/− BALB/c DCs (2×10^5/well) were stimulated with LPS (100 ng/mL), HS (100 μg/mL), or Pam3CSK4 (2 μg/mL), or left unstimulated (media) for 24 hours, and measured for surface expression of co-stimulatory molecules CD40 and CD80 by FACS analysis. FIGS. 3B and 3C are graphs showing WT, MyD88^−/−, and TLR4^−/− BALB/c cultured DCs were co-cultured with media alone, LPS, HS, or Pam3CSK4 as in (A) and culture supernatants were tested for IL-6 (B) and IL-12 (C) by ELISA. Data are representative of three independent experiments; *p<0.05 compared with media alone.
Lethally irradiated BALB/c recipients received either 1×10^7 B10.D2 TCD-BM only (Allo-BM), 1×10^7 B10.D2 TCD-BM and 5×10^6 B10.D2 LCs (Allo-BM+LC), or 1×10^7 BALB/c TCD-BM and 5×10^6 BALB/c LCs (Syn-BM+LC). FIG. 6A is a graph showing HS concentrations following transplantation as determined by ELISA at the indicated time points; n=2-5 samples per time point; *p<0.05 comparing Allo-BM+LC and Allo-BM at the indicated time point. FIG. 6B is a graph showing the half maximal effective concentration (EC50) of HS on DC stimulation, BALB/c DCs (2×10^5/well) following 24 hr of culture with differing concentrations of HS in triplicate and IL-6 production was tested by ELISA. Results are representative of three independent experiments.
FIG. 13 is a graph showing WT, MyD88^−/−, and TLR4^−/− BALB/c cultured DCs that were co-cultured with media alone, LPS, HS, or Pam3CSK4 and tested for TNF-α as determined by ELISA assay.
(§1) Cytokine analysis: Cell culture supernatants were obtained from DC cultures or T cell proliferation assays and assayed for IL-6, IL-12 and IFN-γ by ELISA (BD Biosciences) according to the manufacturer's standard protocols. HEK 293 supernatants were tested for human IL-8 by ELISA (BioLegend, San Diego, United States).
To determine if the in vivo concentrations of HS were sufficient to cause DC activation, the production of IL-6 by cultured DCs in response to a range of HS concentrations was tested (FIG. 6B).

[1] = tested on: purified T cells from C57BL/6 mice stimulated with bone marrow-derived BALB/c DCs; assay: Allogeneic T cell proliferation assay (3H-thymidine incorporation, IFN-γ ELISA); format: cell-based, mouse
Experimental: Cells were co-cultured either alone (media) or in the presence of LPS (100 ng/mL), Pam3CSK4 (2 μg/mL), hyaluronan (HA) (100 μg/mL), sonicated-HA (sHA) (100 μg/mL), fibronectin (FN) (100 μg/mL), fibrinogen (Fbn) (100 μg/mL), heparan sulfate (HS) (100 μg/mL), HSP70 (5 μg/mL), HMGB1 (1 μg/mL), C12-iE-DAP (1 μg/mL), or L18-MDP (1 μg/mL) for 72 hours, and then pulsed ^3H-thymidine for 16 hours. Proliferation was determined by ^3H incorporation and results are expressed as cpm±SEM. Baseline alloreactivity is indicated by the dotted line; *p<0.05 compared with media alone. […] Results are representative of three independent experiments.
T cell proliferation assay: DCs were generated from bone marrow as previously described. (Yang, Y. (2004) Nat. Immunol. 5:508-15). CD3^+ T cells were isolated from B6 mice using a CD3 negative selection magnetic bead kit (Invitrogen, Carlsbad, United States). Proliferation assays were performed as previously described. (Brennan, T. V. et al. (2008) Transplantation 85:247-55).
Purified T cells from C57BL/6 mice were stimulated with bone marrow-derived DCs from BALB/c mice and their proliferation was measured by the incorporation of ^3H-thymidine. DAMPs tested included proteins—fibronectin (FN), fibrinogen (Fbn), heat shock protein 70 (HSP70), and high-mobility group protein B1 (HMGB1); and glucosaminoglycans—heparan sulfate (HS) and hyaluronan (HA). For comparison, two well-described PAMPs, lipopolysaccharide (LPS) and a synthetic tripalmitoylated lipopeptide (Pam3CSK4) that are ligands of the TLR4 homodimer and the TLR1/2 heterodimer, respectively, were tested. As nucleotide-binding domain, leucine-rich repeat containing receptors (NLRB) are another family of innate immune receptors, ligands of NLR1 (C12-iE-DAP) and NLR2 (L18-MDP) were further tested.
Next, to investigate whether HS enhanced proliferation of allogeneic T cells was due to the stimulation of TLRs on DCs or T cells, because MyD88 is a common adaptor protein involved in the signal transduction of all TLRs with the exception of TLR3^9, HS was tested against DCs or T cells that were deficient for MyD88. For this purpose, T cells from WT or MyD88^−/− C57BL/6 mice were stimulated with DCs from WT or MyD88^−/− BALB/c mice in an allogeneic proliferation assay in the presence of HS, LPS, Pam3CSK4, or media alone.
HS has been shown as a TLR4 ligand, (Johnson, G. B. et al., (2002) J. Immunol. 168:5233-39; Johnson, G. B., Brunn, G. J. & Platt, J. L. (2004) J. Immunol. 172:20-24). To determine whether the absence of TLR4 expression on stimulating DCs would reduce HS-induced alloreactive T cell proliferation equivalent to MyD88 deficiency, purified T cells from C57BL/6 mice were co-cultured with irradiated WT, TLR4^−/−, and MyD88^−/− BALB/c DCs and proliferation was measured by the incorporation of ^3H-thymidine.
as §1
Allogenic heart transplants were performed between C57BL/6 donors and (BALB/c x DBA.1)F1 recipients. Serum HS was measured by ELISA Immunohistologic staining for HS and CD3 was performed on heart tx tissue. Bone marrow derived dendritic cells (DCs) and purified T cells from WT-, MyD88- or TLR4-deficient mice were used in MLR assays to test for proliferation and cytokine production in response to HS. CD40 and CD80 expression on stimulated DCs was measured by FACS. T cell proliferation was determined by ^3H-thymidine incorporation and CFSE dye dilution assay. HEK293 NF-kB-luciferase reporter cell lines stably expressing CD14, MD2, and TLR4 or TLR2 were used in assays of HS activity.

[2] = BALB/c DCs 2×10^5/well, 24 hr culture
[3] = TLR4−/− BALB/c DCs as stimulators

In the case of heparan sulfate [HS], the “concentration achieving maximal response (IL-6 production by DCs)” value (BALB/c DCs; [2]) is reported as 12.5 µg/mL, the “half maximal effective concentration (EC50) on DC stimulation (IL-6 production)” value (BALB/c DCs; [2]) is reported as “approximately 4 μg/mL” and the “production of IL-6 and IL-12 from TLR4−/− or MyD88−/− DCs” value (BALB/c DCs; HS 100 μg/mL, 24 h) is reported as “but not from TLR4^−/− or MyD88^−/− DCs”. For the same substance, the “production of IL-6 and IL-12 from WT DCs” value (BALB/c DCs; HS 100 μg/mL, 24 h, not inhibited by PMB) was “stimulated DCs to produce”, the “DC expression of TNF-α” value (BALB/c DCs; TLR4- and MyD88-dependent) was “up-regulate” and the “IFNg production in MLR assays” value [1] was “increased”. The “alloreactive T cell proliferation with MyD88−/− DCs as stimulators” value ([1]; MyD88−/− BALB/c DCs) was “abolished the enhanced proliferation”, the “IFN-γ production with TLR4−/− DCs” value [1, 3] was “not able to increase” and the “proliferation of allogeneic T cells above baseline with TLR4−/− DCs” value [1, 3] was “not able to increase”. The “alloreactive T cell proliferation compared to media alone” value ([1]; WT BALB/c DCs + C57BL/6 T cells, 72 h then 3H-thymidine 16 h, HS 100 μg/mL, HSP70 5 μg/mL, C12-iE-DAP 1 μg/mL, L18-MDP 1 μg/mL) was “significantly increased”.
